Measurements reported in patent US6861223B2, “Ribozyme-encoding DNA and a composition containing an oligonucleotide substrate and a method for measuring transcription rates” (priority 1998, dated 2005).
{FAM} = fluorescein (FAM) reporter dye; {TAMRA} = TAMRA quencher dye

How the values were obtained:
substrate RNA SL1 = experiment: Real time measurement of fluorescence at cleavage of SL1 by HHR1 transcribed in vitro with T7-RNA polymerase; format: biochemical; conditions: 900 nM SL1, 37° C., 535 nm, T7 in-vitro transcription
Experimental: A typical 50 μl reaction batch contained: 40 mM tris HCl, pH 8.0, 50 mM NaCl, 2 mM spermidin, 5 mM dithiothreitol, 5 to 25 mM MgCl2, about 500 nM SL1, 0.2 to 2 μM HHR1-DNA or HHR1mut-DNA, 4mM A/C/G/UTP and 50 units of T7-RNA-polymerase. […] In-vitro transcription was started by the addition of the polymerase, and incubation was carried out at 37° C. while the measurement was taken. • 3. Real Time Measurement of Fluorescence at Cleavage of SL1 by HHR1:
The fluorescence of the transcription batches was measured in an automated manner in an ABI Prism 770 spectrometer (Applied Biosystems, USA), the temperature of which could be adjusted. The spectra in the emission wavelength range of the two dyes (FAM, λmax=518 nm and TAMRA, λmax=582 nm) were recorded in intervals of 7 seconds (excitation energy=488 nm). After an incubation time of 3 hours, the collected data were evaluated by the software contained in the equipment. For a real time control of the individual transcriptions, the fluorescence spectra (range of 500 nm to 660 nm) were projected time-dependently over the spectrum of the reference transcription (with non-functional HHR1mut DNA).

FRET substrate (SL1) = experiment: Real time FRET measurement of ribozyme cleavage activity (HHR1 with substrate SL1); format: biochemical; conditions: HHR1 4 nM, 37° C.; SL1 vs S1 (conventional gel/autoradiography method)
Excerpt: As the increase in fluorescence is directly correlated to the cleavage rate, the system is suitable for a sensitive, non-radioactive and fast analysis of ribozyme activities. A FRET substrate (SLI) was constructed on the basis of a known HHR/substrate complex (M. Fedor, O. C. Uhlenbeck, Proc. Natl. Acad. Sci. USA (1990), 87, 1668-1672) and was used for a time-dependent measurement of ribozyme activity (HHR1). […] The Michaelis-Menten parameter of HHR can be obtained in a single experiment by measurement of the cleavage-caused rise in fluorescence at different substrate concentrations.
In order to find out whether the method is suitable for the fast characterization of ribozymes, the activity was measured in parallel batches while various physico-chemical parameters were modified.
FIGS. 3b-d show the dependency of the reaction rate on the pH value, the temperature and the Mg^2+ concentration. […]
Characterization of the cleavage activity at 4 nM HHR1 and 200 or 300 nM SL1. (a) Time-dependent course of cleavage with the reciprocally exponential regression curve (only 1% of all data points measured are depicted). […] (0.0134 nM^−1 min^−1) were also determined.
The real time measurements of the rise in fluorescence caused by the ribozyme were taken in 50 μl reaction batches. The signal measured comprises both the chemical step of cleavage and the release of the cleavage products. […]

Row | Substance | relative fluorescence ΔRn of the fluorophore / fluorescence signal (substrate RNA SL1) | Kcat and KM values of FRET substrate compared with 32P labeled substrate S1 (FRET substrate (SL1))
1 | 5′-TCT AAT ACG ACT CAC TAT A GGGTCCTCTGATGAGGCCGTTAGGCCGAAACTCGT-3′ [HHR1-DNA] | increased with the incubation times | 
2 | 5′-FAM-ACG AGU CAG GAU U-TAMRA-3′ (ACGAGUCAGGAUU; RNA, 5' {FAM}, 3' {TAMRA}, backbone not given here) [SL1, 5′-FAM and 3′-TAMRA labeled substrate RNA (FRET substrate)] |  | in the same order of magnitude
3 | 5′-TCT AAT ACG ACT CAC TAT A GGGTCCTCTTAGGAGGCCGTTAGGCCAGAACTCGT-3′ [HHR1mut, reference compound] | no influence | 
